ChEMBL document CHEMBL1201862, “PubChem BioAssay data set” (2004)
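A five-concentration, 48-hour dose response in 96-well plates underlies each endpoint, interpolated linearly between surrounding concentrations. The concentration for 50% growth inhibition is given as GI50.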 The source made the active and inactive calls. Cut-off read from the data, not from the text of the source: active = GI50 up to about 1.1 µM and inactive = higher.

Assays:
Assay in all cases: inhibition of tumour cell growth, NCI panel, 48 h
HT-29 = system: HT-29
SF-268 = system: SF-268
786-0 = system: 786-0
PC-3 = system: PC-3
SK-OV-3 = system: SK-OV-3
NCI-H460 = system: NCI-H460
HOP-92 = system: HOP-92
K562 = system: K562
RXF 393 = system: RXF 393
SW-620 = system: SW-620
EKVX = system: EKVX
DU-145 = system: DU-145
HCT-15 = system: HCT-15
A549 = system: A549
NCI/ADR-RES = system: NCI/ADR-RES
TK-10 = system: TK-10
ACHN = system: ACHN
SR = system: SR
HL-60 = system: HL-60

In the case of `CC1=CSC(O)(c2ccc(Cl)cc2)c2noc(=O)n21` (stereo not given), the GI50 (HT-29) is reported as > 100 µM (inactive), the GI50 (SF-268) is reported as > 100 µM (inactive) and the GI50 (786-0) is reported as > 100 µM (inactive). For the same compound, the GI50 (PC-3) was 71.1 µM (inactive), the GI50 (SK-OV-3) was > 100 µM (inactive) and the GI50 (NCI-H460) was 51.2 µM (inactive). The GI50 (HOP-92) was 94.8 µM (inactive), the GI50 (K562) was 61.1 µM (inactive) and the GI50 (RXF 393) was 71.6 µM (inactive). The GI50 (SW-620) was > 100 µM (inactive), the GI50 (EKVX) was > 100 µM (inactive) and the GI50 (DU-145) was > 100 µM (inactive). For the same compound, the GI50 (HCT-15) was 72.9 µM, the GI50 (A549) was > 100 µM (inactive) and the GI50 (NCI/ADR-RES) was 53.7 µM (inactive). The GI50 (TK-10) was > 100 µM (inactive), the GI50 (ACHN) was > 100 µM (inactive) and the GI50 (SR) was 50.7 µM (inactive).
In the case of `CN(CCN)[C@H](CSSC[C@@H](c1ccccc1O)N(C)CCN)c1ccccc1O`, the GI50 (HT-29) is reported as 9.55 µM (inactive), the GI50 (SF-268) is reported as 12.4 µM (inactive) and the GI50 (786-0) is reported as 7.57 µM (inactive). The GI50 (PC-3) was 11.7 µM (inactive), the GI50 (SK-OV-3) was 11.7 µM (inactive) and the GI50 (NCI-H460) was 4.98 µM (inactive). The GI50 (HOP-92) was 17.7 µM (inactive), the GI50 (K562) was 7.18 µM (inactive) and the GI50 (RXF 393) was 18.9 µM (inactive). The GI50 (SW-620) was 15.7 µM (inactive), the GI50 (EKVX) was 11.5 µM (inactive) and the GI50 (DU-145) was 14.8 µM (inactive). For the same compound, the GI50 (HCT-15) was 5.33 µM, the GI50 (A549) was 7.24 µM (inactive) and the GI50 (NCI/ADR-RES) was 6.1 µM (inactive). For the same compound, the GI50 (TK-10) was 13.9 µM (inactive), the GI50 (ACHN) was 10.1 µM (inactive) and the GI50 (SR) was 2.87 µM (inactive).
For `Cc1ccc(N/C(Sc2ccccc2)=C(/C(Cl)=C(Cl)Cl)[N+](=O)[O-])c(C)c1`, the GI50 (HT-29) was 18.3 µM (inactive), the GI50 (SF-268) was 14 µM (inactive) and the GI50 (786-0) was 16.5 µM (inactive). The GI50 (PC-3) was 17.7 µM (inactive), the GI50 (HL-60) was 18.2 µM (inactive) and the GI50 (SK-OV-3) was 37.8 µM (inactive). The GI50 (NCI-H460) was 16.8 µM (inactive), the GI50 (HOP-92) was 14 µM (inactive) and the GI50 (K562) was 18 µM (inactive). For the same compound, the GI50 (SW-620) was 19.7 µM (inactive), the GI50 (EKVX) was 22.1 µM (inactive) and the GI50 (DU-145) was 36.1 µM (inactive). For the same compound, the GI50 (HCT-15) was 16.8 µM, the GI50 (A549) was 33.8 µM (inactive) and the GI50 (NCI/ADR-RES) was 23.7 µM (inactive). For the same compound, the GI50 (TK-10) was 45.6 µM (inactive), the GI50 (ACHN) was 32.8 µM (inactive) and the GI50 (SR) was 23.3 µM (inactive).
For `O=c1c2c3ccccc3[nH]c2c2cccc3c2n1CCC3`, the GI50 (HT-29) was 29.6 µM (inactive), the GI50 (SF-268) was 33 µM (inactive) and the GI50 (786-0) was 4.27 µM (inactive). The GI50 (PC-3) was 26.8 µM (inactive), the GI50 (SK-OV-3) was 83.6 µM (inactive) and the GI50 (NCI-H460) was 34.8 µM (inactive). For the same compound, the GI50 (HOP-92) was 40.2 µM (inactive), the GI50 (K562) was 32.3 µM (inactive) and the GI50 (RXF 393) was 29.4 µM (inactive). For the same compound, the GI50 (SW-620) was 43.3 µM (inactive), the GI50 (EKVX) was 20.6 µM (inactive) and the GI50 (DU-145) was > 100 µM (inactive). The GI50 (HCT-15) was 32.4 µM, the GI50 (A549) was 48.1 µM (inactive) and the GI50 (NCI/ADR-RES) was 50 µM (inactive). The GI50 (TK-10) was 68.9 µM (inactive), the GI50 (ACHN) was 41.1 µM (inactive) and the GI50 (SR) was 25.9 µM (inactive).
In the case of `CCCC[C@@H](C)/C=C1\CN2CCC[C@H]2[C@@](C)(OCc2ccccc2)[C@@H]1O`, the GI50 (HT-29) is reported as > 50 µM (inactive), the GI50 (SF-268) is reported as > 29.4 µM (inactive) and the GI50 (786-0) is reported as > 47.4 µM (inactive). The GI50 (PC-3) was > 50 µM (inactive), the GI50 (SK-OV-3) was > 50 µM (inactive) and the GI50 (NCI-H460) was > 16.7 µM (inactive). For the same compound, the GI50 (HOP-92) was > 42 µM (inactive), the GI50 (K562) was > 29.9 µM (inactive) and the GI50 (RXF 393) was > 44.6 µM (inactive). The GI50 (SW-620) was > 50 µM (inactive), the GI50 (EKVX) was > 31.1 µM (inactive) and the GI50 (DU-145) was > 14.4 µM (inactive). The GI50 (HCT-15) was over 50 µM, the GI50 (A549) was > 43.7 µM (inactive) and the GI50 (NCI/ADR-RES) was > 50 µM (inactive). For the same compound, the GI50 (TK-10) was > 38.5 µM (inactive), the GI50 (ACHN) was > 50 µM (inactive) and the GI50 (SR) was > 50 µM (inactive).
`Cn1c([C@H](C#N)C(=O)c2cc(O)ccc2[N+](=O)[O-])nc2ccccc21` was tested, and the GI50 (HT-29) was > 100 µM (inactive), the GI50 (SF-268) was > 100 µM (inactive) and the GI50 (786-0) was > 100 µM (inactive). For the same compound, the GI50 (PC-3) was > 100 µM (inactive), the GI50 (HL-60) was > 100 µM (inactive) and the GI50 (NCI-H460) was > 100 µM (inactive). The GI50 (HOP-92) was > 100 µM (inactive), the GI50 (EKVX) was > 100 µM (inactive) and the GI50 (DU-145) was > 100 µM (inactive). The GI50 (HCT-15) was over 100 µM, the GI50 (A549) was > 100 µM (inactive) and the GI50 (NCI/ADR-RES) was > 100 µM (inactive). The GI50 (TK-10) was > 100 µM (inactive), the GI50 (ACHN) was > 100 µM (inactive) and the GI50 (SR) was 5.98 µM (inactive).
